Data: ChEMBL document CHEMBL1122751, “Structure-activity relationships of phenytoin-like anticonvulsant drugs” (1984)

Test system: Mus musculus
Assay: Antiepileptic potency in the maximal electroshock seizure test. Compound was administered orally to male NMRI mice
Type: functional
Details: po

Row | SMILES | ED50 [µmol/kg]
1 | CN1C(=O)CC(c2ccccc2)(c2ccccc2)C1=O | 357
2 | O=C1CC(c2ccccc2)(c2ccccc2)C(=O)N1 | 107
3 | CN1C(=O)NC(c2ccccc2)(c2ccccc2)C1=O | 149
4 | CC1CC(c2ccccc2)(c2ccccc2)C(=O)N1C (stereo unspecified) | 3830
5 | O=C1NCNC1(c1ccccc1)c1ccccc1 [DOXENITOIN] | 129
6 | O=C1NC(=O)C(c2ccccc2)(c2ccccc2)N1 [PHENYTOIN] | 28
